Patent US20230192683A1, “FUSED RING COMPOUNDS, PREPARATION METHOD THEREFOR, PHARMACEUTICAL COMPOSITIONS AND USE THEREOF” (priority 2020, published 2023)
Marks after values point to notes of the source that are not given here.

Columns and labels:
rat CFA pain model [1] = assay: multi-dose oral pharmacodynamic study in rat CFA pain model (Von Frey PWT); assay type: in vivo
Description: The efficacy of Compound 1a and Compound 14 in the rat CFA pain model was evaluated using a mechanical allodynia method.
SD rats, 72 males, divided into 9 groups, were purchased from Beijing Vital River Laboratory Animal Technology Co., Ltd.
The experimental animals were adaptively reared for 3 to 7 days, and 8 of them were selected as a normal control group, and the other animals were injected with 50 µL of CFA in the center of the left hind paw for modeling. 24 hours after injection, the animals were tested for paw withdrawal threshold (PWT) basal values, and were divided into groups according to the basal values, which were solvent control group, indomethacin group, Compound 1a, 10 mpk group, Compound 1a, 30 mpk group, Compound 1a, 100 mpk group, Compound 14, 3 mpk group, Compound 14, 10 mpk group, and Compound 14, 30 mpk group, with 8 animals in each group. Subsequently, the animals were weighed and administered orally according to Table 6. All the animals were tested for paw withdrawal thresholds (PWT) using Von Frey 1, 2, and 4 hours after administration to further evaluate the efficacy of the compounds of the present invention.

human SSTR4 = target: T1, human SSTR4 (Homo sapiens, UniProt P31391); assay: radioligand binding assay, [125I]Somatostatin-14, CHO-K1 membranes
T1 construct: expressed in transfected cells
T1 sequence (P31391 whole entry): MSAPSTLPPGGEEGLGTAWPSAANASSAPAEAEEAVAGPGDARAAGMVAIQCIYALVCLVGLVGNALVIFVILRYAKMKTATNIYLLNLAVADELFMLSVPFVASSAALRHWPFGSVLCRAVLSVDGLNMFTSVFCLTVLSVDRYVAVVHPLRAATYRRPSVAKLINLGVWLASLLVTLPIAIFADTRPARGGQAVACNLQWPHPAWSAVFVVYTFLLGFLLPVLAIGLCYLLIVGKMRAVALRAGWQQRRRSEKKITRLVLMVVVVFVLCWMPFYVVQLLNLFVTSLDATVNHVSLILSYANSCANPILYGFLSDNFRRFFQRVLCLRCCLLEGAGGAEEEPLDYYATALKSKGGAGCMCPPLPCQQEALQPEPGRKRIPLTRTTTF
Description: (§1) Cell membranes were then filtered and washed, and protein-bound radioactivity was measured with a suitable instrument. The Ki values of corresponding targets were calculated using a Cheng-Prusoff formula.

human SSTR5 = target: T2, human SSTR5 (Homo sapiens, UniProt P35346); assay: biochemical; conditions: 25° C., 2 hours, Cheng-Prusoff; read-out: Binding Ki (nM) SSTR5
T2 construct: expressed in transfected cells; host or cells: CHO-K1 (membrane homogenates)
T2 sequence (P35346 whole entry): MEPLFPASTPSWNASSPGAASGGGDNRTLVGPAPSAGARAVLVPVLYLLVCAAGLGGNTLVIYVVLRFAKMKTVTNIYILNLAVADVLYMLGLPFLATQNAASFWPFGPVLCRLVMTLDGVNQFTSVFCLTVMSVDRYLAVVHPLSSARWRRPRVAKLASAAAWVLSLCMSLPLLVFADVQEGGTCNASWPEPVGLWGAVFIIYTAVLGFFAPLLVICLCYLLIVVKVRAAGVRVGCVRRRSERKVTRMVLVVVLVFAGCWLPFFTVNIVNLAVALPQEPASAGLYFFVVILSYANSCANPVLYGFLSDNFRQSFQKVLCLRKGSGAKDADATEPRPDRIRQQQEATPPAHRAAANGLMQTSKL
Description: as §1

human SSTR2 = target: T3, human SSTR2 (Homo sapiens, UniProt P30874); assay: biochemical; conditions: 25° C., 2 hours, Cheng-Prusoff; read-out: Binding Ki (nM) SSTR2
T3 construct: expressed in transfected cells; host or cells: CHO-K1 (membrane homogenates)
T3 sequence (P30874 whole entry): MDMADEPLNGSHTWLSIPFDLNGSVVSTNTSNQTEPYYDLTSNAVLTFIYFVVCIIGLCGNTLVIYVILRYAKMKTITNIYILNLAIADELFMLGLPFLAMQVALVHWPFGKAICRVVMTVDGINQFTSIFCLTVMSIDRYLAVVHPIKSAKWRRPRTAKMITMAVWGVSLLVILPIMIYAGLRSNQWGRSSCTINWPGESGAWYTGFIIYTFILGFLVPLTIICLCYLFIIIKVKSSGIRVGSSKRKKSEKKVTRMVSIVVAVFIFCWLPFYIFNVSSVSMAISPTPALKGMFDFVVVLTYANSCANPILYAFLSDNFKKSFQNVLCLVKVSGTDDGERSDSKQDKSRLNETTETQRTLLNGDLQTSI
Description: as §1

human SSTR3 = target: T4, human SSTR3 (Homo sapiens, UniProt P32745); assay: biochemical; conditions: 25° C., 2 hours, Cheng-Prusoff; read-out: Binding Ki (nM) SSTR3
T4 construct: expressed in transfected cells; host or cells: CHO-K1 (membrane homogenates)
T4 sequence (P32745 whole entry): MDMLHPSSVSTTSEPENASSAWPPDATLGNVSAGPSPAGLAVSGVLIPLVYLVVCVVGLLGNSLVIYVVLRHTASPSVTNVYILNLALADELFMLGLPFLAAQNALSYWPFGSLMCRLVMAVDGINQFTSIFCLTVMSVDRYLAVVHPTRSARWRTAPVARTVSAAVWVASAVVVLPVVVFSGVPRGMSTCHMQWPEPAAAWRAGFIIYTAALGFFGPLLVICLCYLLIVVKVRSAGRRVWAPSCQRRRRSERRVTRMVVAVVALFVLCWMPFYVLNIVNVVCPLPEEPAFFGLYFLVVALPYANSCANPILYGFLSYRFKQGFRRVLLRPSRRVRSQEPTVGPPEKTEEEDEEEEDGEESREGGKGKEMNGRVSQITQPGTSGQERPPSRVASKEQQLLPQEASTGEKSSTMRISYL
Description: as §1

human SSTR1 = target: T5, human SSTR1 (Homo sapiens, UniProt P30872); assay: biochemical; conditions: 25° C., 2 hours, Cheng-Prusoff; read-out: Binding Ki (nM) SSTR1
T5 construct: expressed in transfected cells; host or cells: CHO-K1 (membrane homogenates)
T5 sequence (P30872 whole entry): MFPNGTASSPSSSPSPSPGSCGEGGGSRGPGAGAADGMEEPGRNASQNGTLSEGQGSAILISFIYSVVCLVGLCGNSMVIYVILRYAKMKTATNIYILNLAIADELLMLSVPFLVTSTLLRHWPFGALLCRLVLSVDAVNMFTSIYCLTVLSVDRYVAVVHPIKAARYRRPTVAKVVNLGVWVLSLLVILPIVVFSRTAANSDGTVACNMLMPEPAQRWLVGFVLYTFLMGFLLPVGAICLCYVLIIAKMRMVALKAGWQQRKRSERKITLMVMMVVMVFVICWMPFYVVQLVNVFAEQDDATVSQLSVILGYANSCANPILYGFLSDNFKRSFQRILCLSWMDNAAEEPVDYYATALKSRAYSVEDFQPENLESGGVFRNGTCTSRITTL
Description: as §1

rat CFA pain model [2] = assay: single-dose pharmacodynamic study in rat CFA pain model (Von Frey PWT); assay type: in vivo; conditions: for Mechanical allodynia test (PWT (g), mean) Baseline: 10 mg/kg I.P. group, baseline 24 h after CFA, before administration; for Mechanical allodynia test (PWT (g), mean) 1 hour: 1 hour after single administration; for Mechanical allodynia test (PWT (g), mean) 3 hours: 3 hours after single administration; for inhibition of CFA-induced mechanical allodynia (in words): single administration, FIG. 1
Description: Each male SD rat (7-8 weeks old) was injected with 50 microliters of CFA in the center of the left hind paw. A PWT basal value test was conducted 24 hours after modeling, and the drugs were administered after randomization.
There were 8 animals in each group, and the animals were weighed and administered according to Table 4.
For all groups of animals, paw withdrawal thresholds (PWTs) of the animals were tested using Von Frey after 1 h and 3 h of single administration.

[3] = pharmacokinetic evaluation in rats after oral and intravenous administration; assay type: in vivo; conditions: Sprague-Dawley, rat, plasma, male SD rats, oral 10.0 mg/kg, intravenous 1.0 mg/kg, route and unit inferred
Description: Using rats as test animals, an LC/MS/MS method was used to determine the drug concentrations in plasma at different times after oral and intravenous administration of Compound 1a and Compound 14 in the rats. The pharmacokinetic behavior of the compounds of the present invention in rats was studied, and pharmacokinetic characteristics thereof were evaluated.
For each compound, 6 healthy adult SD (Sprague-Dawley) rats, male, were divided into oral and intravenous administration groups, 3 rats in each group, purchased from Shanghai SIPPR/BK Laboratory Animal Co., Ltd., animal production license number: SCXK (Shanghai) 2008-0016.
A specific amount of the drug was weighed and dissolved in 5% dimethylacetamide (DMA) + 5% polyethylene glycol-15 hydroxystearate (solutol) + 90% saline solution to prepare a 0.2 mg/mL solution.
The SD rats were fasted overnight and were administered orally and intravenously. The oral dose was 10.0 mg/kg, and the intravenous dose was 1.0 mg/kg.
Compound 1a and Compound 14 were administered orally and intravenously to the rats. At 0.083, 0.25, 0.5, 1, 2, 4, 8, and 24 hours after administration, 0.2 mL of blood was collected from the submandibular vein or other suitable blood vessels, placed in K2-EDTA tubes, and then stored on ice. Within one hour, the plasma was separated by centrifugation at 6,800 g for 6 minutes at 2-8° C., and stored at -80° C. for LC/MS/MS analysis. The rats were fed 4 hours after administration.

CSc1cccn2c(C(C)(C)NC(=O)[C@H]3[C@@H]4CNC[C@@H]43)ncc12 [Compound 1a, (1R,5S,6R)-N-(2-(8-(Methylthio)Imidazo[1,5-a]Pyridin-3-yl)Prop-2-yl)-3-Azabicyclo[3.1.0]Hexane-6-Carboxamide]
Paw withdrawal threshold (PWT(g)) (average) 0 hours (rat CFA pain model [1]; 10 mg/kg oral group): 3.016 g | Paw withdrawal threshold (PWT(g)) (average) 1 hour (rat CFA pain model [1]; 10 mg/kg oral): 4.020 g | Paw withdrawal threshold (PWT(g)) (average) 2 hours (rat CFA pain model [1]; 10 mg/kg oral): 6.722 * g | Paw withdrawal threshold (PWT(g)) (average) 4 hours (rat CFA pain model [1]; 10 mg/kg oral): 8.438 **** g | Paw withdrawal threshold (PWT(g)) (average) 0 hours (rat CFA pain model [1]; 30 mg/kg oral group): 3.118 g | Paw withdrawal threshold (PWT(g)) (average) 1 hour (rat CFA pain model [1]; 30 mg/kg oral): 4.173 g | Paw withdrawal threshold (PWT(g)) (average) 2 hours (rat CFA pain model [1]; 30 mg/kg oral): 7.637 ** g | Paw withdrawal threshold (PWT(g)) (average) 4 hours (rat CFA pain model [1]; 30 mg/kg oral): 10.958 **** ### g | Paw withdrawal threshold (PWT(g)) (average) 0 hours (rat CFA pain model [1]; 100 mg/kg oral group): 3.118 g | Paw withdrawal threshold (PWT(g)) (average) 1 hour (rat CFA pain model [1]; 100 mg/kg oral): 3.855 g | Paw withdrawal threshold (PWT(g)) (average) 2 hours (rat CFA pain model [1]; 100 mg/kg oral): 9.549 **** g | Paw withdrawal threshold (PWT(g)) (average) 4 hours (rat CFA pain model [1]; 100 mg/kg oral): 9.687 **** # g | efficacy compared with positive control compound indomethacin (in words) (rat CFA pain model [1]; 30 mpk and 100 mpk groups, oral, 4 hours after administration): significantly better than that of the positive control compound indomethacin | inhibition of CFA-induced mechanical hyperalgesia (in words) (rat CFA pain model [1]; oral 10, 30, 100 mg/kg, 2 and 4 hours after administration): dose-dependently inhibit | onset dose (rat CFA pain model [1]; oral, inhibition of CFA-induced mechanical hyperalgesia): 10 mg/kg | Ki (human SSTR4): 0.00552 µM | SSTR4 selectivity (in words) (human SSTR4; binding selectivity to SSTRs 1-5): the best | SSTR4 /SSTR 1 (human SSTR4; ratio of binding Ki values, selectivity): > 1500 | Ki (human SSTR5): > 5650 nM | Ki (human SSTR2): > 5310 nM | Ki (human SSTR3): > 3420 nM | Ki (human SSTR1): > 8280 nM | Mechanical allodynia test (PWT (g), mean) Baseline (rat CFA pain model [2]): 3.554 g | Mechanical allodynia test (PWT (g), mean) 1 hour (rat CFA pain model [2]; 10 mg/kg I.P.): 6.484 * # g | efficacy compared with Control Compound A (in words) (rat CFA pain model [2]; 10 mg/kg I.P., 1 hour and 3 hours after administration): significantly better than that of Control Compound A | Mechanical allodynia test (PWT (g), mean) 3 hours (rat CFA pain model [2]; 10 mg/kg I.P.): 8.371 **** g | inhibition of CFA-induced mechanical allodynia (in words) (rat CFA pain model [2]; 10 mg/kg I.P.): inhibited CFA-induced mechanical allodynia | half-life [3]: 2.58 ± 1.07 h | Vd ([3]; read-out: Apparent volume of distribution): 5.12 ± 1.14 L/kg | clearance ([3]; read-out: Clearance rate): 3.18 ± 0.106 L/h/kg

Cc1cccc2c(C(C)(C)NC(=O)[C@H]3[C@@H]4CNC[C@@H]43)nn(C)c12 [Control Compound A, reference compound]
Ki (human SSTR5): > 5650 nM | Ki (human SSTR2): > 5310 nM | Ki (human SSTR3): > 3420 nM | Ki (human SSTR1): 1800 nM | Mechanical allodynia test (PWT (g), mean) Baseline (rat CFA pain model [2]): 3.765 g | Mechanical allodynia test (PWT (g), mean) 1 hour (rat CFA pain model [2]; 10 mg/kg I.P.): 3.813 g | Mechanical allodynia test (PWT (g), mean) 3 hours (rat CFA pain model [2]; 10 mg/kg I.P.): 6.237 * g | inhibition of CFA-induced mechanical allodynia (in words) (rat CFA pain model [2]; 10 mg/kg I.P.): inhibited CFA-induced mechanical allodynia
